Source: ChEMBL document CHEMBL1201862, “PubChem BioAssay data set” (2004)
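Five concentrations, 48 hours, 96-well plates. GI50 marks 50% less growth.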 Active and inactive are the calls of the source. Cut-off read from the data, not from the text of the source: active = GI50 up to about 1.1 µM and inactive = higher.

Legend:
Experiment in all cases: NCI-60 cell line screen, 48 h
[1] = system: OVCAR-5
[2] = system: MCF7
[3] = system: SK-MEL-5
[4] = system: UO-31
[5] = system: SW-620
[6] = system: SF-268
[7] = system: SNB-19
[8] = system: HT-29
[9] = system: DMS-114
[10] = system: NCI-H23
[11] = system: A549
[12] = system: HOP-92
[13] = system: DMS-273
[14] = system: RPMI-8226
[15] = system: EKVX
[16] = system: HCT-15
[17] = system: SK-OV-3
[18] = system: SK-MEL-2
[19] = system: K562
[20] = system: IGROV-1
[21] = system: HOP-18
[22] = system: HOP-62
[23] = system: HCT-116
[24] = system: NCI-H460
[25] = system: U-251
[26] = system: A498
[27] = system: XF498
[28] = system: SK-MEL-28
[29] = system: SF-539
[30] = system: SNB-75
[31] = system: LOX IMVI
[32] = system: OVCAR-4
[33] = system: HL-60
[34] = system: NCI/ADR-RES
[35] = system: KM12
[36] = system: NCI-H522
[37] = system: HCC 2998
[38] = system: COLO 205
[39] = system: NCI-H226
[40] = system: CCRF-CEM
[41] = system: M19-MEL
[42] = system: UACC-62
[43] = system: UACC-257
[44] = system: SN12C
[45] = system: SF-295
[46] = system: MOLT-4
[47] = system: CAKI-1
[48] = system: OVCAR-3
[49] = system: DLD-1
[50] = system: OVCAR-8
[51] = system: Malme-3M
[52] = system: SR
[53] = system: SNB-78
[54] = system: ACHN
[55] = system: TK-10
[56] = system: 786-0
[57] = system: M14

## O=C1C=C[C@@H](COC2OC(CO)C(O)C(O)C2O)O1 (stereo partly drawn)
[1]
  GI50: 22 µM (inactive)
[2]
  GI50: 4.46 µM (inactive)
[3]
  GI50: 17.8 µM (inactive)
[4]
  GI50: 50.2 µM (inactive)
[5]
  GI50: 3.78 µM (inactive)
[6]
  GI50: 25.8 µM (inactive)
[7]
  GI50: > 10 µM (inactive)
[8]
  GI50: 5.86 µM (inactive)
[9]
  GI50: 14.1 µM (inactive)
[10]
  GI50: 10.9 µM (inactive)
[11]
  GI50: 22 µM (inactive)
[12]
  GI50: 20.5 µM (inactive)
[13]
  GI50: 14.1 µM (inactive)
[14]
  GI50: 3.16 µM (inactive)
[15]
  GI50: 20.4 µM (inactive)
[16]
  GI50: 3.69 µM
[17]
  GI50: 73.6 µM (inactive)
[18]
  GI50: 13.6 µM (inactive)
[19]
  GI50: 3.42 µM (inactive)
[20]
  GI50: 27.6 µM (inactive)
[21]
  GI50: 68.2 µM (inactive)
[22]
  GI50: 56.2 µM (inactive)
[23]
  GI50: > 100 µM (inactive)
[24]
  GI50: 10.3 µM (inactive)
[25]
  GI50: 15.7 µM (inactive)
[26]
  GI50: 16.1 µM (inactive)
[27]
  GI50: 16.6 µM (inactive)
[28]
  GI50: > 100 µM (inactive)
[29]
  GI50: 5.6 µM (inactive)
[30]
  GI50: 14.9 µM (inactive)
[31]
  GI50: 3.88 µM (inactive)
[32]
  GI50: 19 µM (inactive)
[33]
  GI50: 1.72 µM (inactive)
[34]
  GI50: 4.38 µM (inactive)
[35]
  GI50: 4.95 µM (inactive)
[36]
  GI50: 5.14 µM (inactive)
[37]
  GI50: 40 µM (inactive)
[38]
  GI50: 6.98 µM (inactive)
[39]
  GI50: 35.7 µM (inactive)
[40]
  GI50: 1.36 µM (inactive)
[41]
  GI50: 12.8 µM (inactive)
[42]
  GI50: 10.2 µM (inactive)
[43]
  GI50: 14.3 µM (inactive)
[44]
  GI50: 5.93 µM (inactive)
[45]
  GI50: 18.1 µM (inactive)
[46]
  GI50: 4.39 µM (inactive)
[47]
  GI50: 17.9 µM (inactive)
[48]
  GI50: 16.8 µM (inactive)
[49]
  GI50: 3.35 µM (inactive)
[50]
  GI50: 14.2 µM (inactive)

## COc1cc(/C=C2\C(=O)N(C(=O)Cc3ccccc3)N=C2C)ccc1O
[1]
  GI50: > 100 µM (inactive)
[3]
  GI50: 3.01 µM (inactive)
[4]
  GI50: > 100 µM (inactive)
[5]
  GI50: > 100 µM (inactive)
[6]
  GI50: > 100 µM (inactive)
[7]
  GI50: > 100 µM (inactive)
[8]
  GI50: > 10 µM (inactive)
[51]
  GI50: > 100 µM (inactive)
[52]
  GI50: > 100 µM (inactive)
[9]
  GI50: > 100 µM (inactive)
[10]
  GI50: > 100 µM (inactive)
[11]
  GI50: > 100 µM (inactive)
[13]
  GI50: > 100 µM (inactive)
[14]
  GI50: > 100 µM (inactive)
[15]
  GI50: > 100 µM (inactive)
[16]
  GI50: > 100 µM
[18]
  GI50: > 100 µM (inactive)
[53]
  GI50: > 100 µM (inactive)
[19]
  GI50: > 100 µM (inactive)
[21]
  GI50: > 100 µM (inactive)
[22]
  GI50: > 100 µM (inactive)
[54]
  GI50: > 100 µM (inactive)
[23]
  GI50: > 100 µM (inactive)
[55]
  GI50: > 100 µM (inactive)
[27]
  GI50: > 100 µM (inactive)
[28]
  GI50: > 100 µM (inactive)
[29]
  GI50: > 100 µM (inactive)
[30]
  GI50: > 100 µM (inactive)
[31]
  GI50: > 100 µM (inactive)
[32]
  GI50: > 100 µM (inactive)
[33]
  GI50: > 100 µM (inactive)
[35]
  GI50: > 100 µM (inactive)
[36]
  GI50: > 100 µM (inactive)
[37]
  GI50: > 100 µM (inactive)
[38]
  GI50: > 100 µM (inactive)
[39]
  GI50: > 100 µM (inactive)
[40]
  GI50: > 100 µM (inactive)
[56]
  GI50: > 100 µM (inactive)
[41]
  GI50: > 100 µM (inactive)
[57]
  GI50: > 100 µM (inactive)
[43]
  GI50: > 100 µM (inactive)
[44]
  GI50: > 100 µM (inactive)
[45]
  GI50: > 100 µM (inactive)
[46]
  GI50: > 100 µM (inactive)
[47]
  GI50: > 100 µM (inactive)
[48]
  GI50: > 100 µM (inactive)
[49]
  GI50: > 100 µM (inactive)
[50]
  GI50: > 100 µM (inactive)
